Biological target: Histamine H1 receptor (Cavia porcellus, UniProt P31389)
Sequence (P31389 whole entry): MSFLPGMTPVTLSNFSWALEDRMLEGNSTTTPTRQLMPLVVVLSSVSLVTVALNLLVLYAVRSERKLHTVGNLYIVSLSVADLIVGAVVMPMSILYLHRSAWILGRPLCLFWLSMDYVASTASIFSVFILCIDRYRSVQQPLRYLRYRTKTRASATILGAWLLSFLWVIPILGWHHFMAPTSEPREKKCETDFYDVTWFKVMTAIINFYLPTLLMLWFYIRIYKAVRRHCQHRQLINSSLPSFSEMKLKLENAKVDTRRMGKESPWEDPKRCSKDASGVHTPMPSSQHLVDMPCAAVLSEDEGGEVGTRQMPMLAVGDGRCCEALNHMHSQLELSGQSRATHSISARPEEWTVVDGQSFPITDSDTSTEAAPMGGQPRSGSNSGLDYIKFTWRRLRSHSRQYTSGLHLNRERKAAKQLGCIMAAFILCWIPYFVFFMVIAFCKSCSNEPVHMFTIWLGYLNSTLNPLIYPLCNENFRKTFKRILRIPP

Ki: 0.93 nM
SMILES: Cc1ccc(C(=CCN2CCCC2)c2ccccn2)cc1 [CAS_486-12-4]
